Values quoted from earlier work in the PKSmart pharmacokinetics tables (Seal et al. 2025).

Test: not given per row; by the article one of three: Lombardo et al. 2013, J Clin Pharmacol 53:178, doi 10.1177/0091270012440282; 'New Drugs at FDA', novel drug approvals for 2021 and 2022 (the article's reference 43); Yap, Li, Chen 2006, J Mol Graph Model 24:383, doi 10.1016
Conditions: human; in vivo

Which clearance does the source give for `CS(=O)(=O)c1ccc([C@H](O)[C@@H](CO)NC(=O)C(Cl)Cl)cc1` here?
Its clearance is 2.62 mL/min/kg.

Which half-life does the source give for `C[C@]12CC[C@@H]3c4ccc(O)cc4CC[C@H]3[C@@H]1[C@@H](O)[C@@H](O)[C@@H]2O` here?
The half-life was 27 h.

Which clearance does the source give for `CCCC[C@@H]1CC(=O)[C@]2(O)O[C@H]3[C@@H](NC)[C@@H](O)[C@@H](NC)[C@H](O)[C@@H]3O[C@@H]2O1` here?
Its clearance is 1.9 mL/min/kg.

What does the source list for `COc1cc2nccc(Oc3ccc(NC(=O)Nc4cc(C)on4)c(Cl)c3)c2cc1OC`?
Vd: 2.05 L/kg; clearance: 0.21 mL/min/kg; half-life: 111 h

Which clearance does the source give for `CN1c2ccccc2[C@H](NCCCCCCC(=O)O)c2ccc(Cl)cc2S1(=O)=O` here?
The clearance was 3.43 mL/min/kg.

For `CC(C)Oc1ccc(-c2nn([C@@H](C)c3oc4ccc(F)cc4c(=O)c3-c3cccc(F)c3)c3ncnc(N)c23)cc1F`, which Vd is on record?
The Vd was 5.2 L/kg.

And the clearance?
Its clearance is 4.31 mL/min/kg.

What about the half-life of the same compound?
Its half-life is 91 h.

With `C[C@]12CC[C@@H]3C4=C(CC[C@H]3[C@@H]1CC[C@@H]2O)CC(=O)CC4` as the compound, how does the clearance read?
The clearance was 26.7 mL/min/kg.

With `CCN1C[C@@H](CCN2CCOCC2)C(c2ccccc2)(c2ccccc2)C1=O` as the compound, how does the clearance read?
Its clearance is 5.75 mL/min/kg.

With `CON=C(C(=O)NC1C(=O)N2C(C(=O)[O-])=C(C[n+]3cccc4c3CCC4)CS[C@@H]12)c1csc(N)n1` (stereo not given in full) as the compound, how does the clearance read?
The clearance was 1.98 mL/min/kg.

For `CCCC(NC(C)C(=O)N1C(C(=O)O)C[C@@H]2CCCC[C@H]21)C(=O)O` (stereo not given in full), which clearance is on record?
Its clearance is 10.9 mL/min/kg.

With `O=C(O)c1cc(O)c2c(c1)C(=O)c1cccc(O)c1C2=O` as the compound, how does the clearance read?
The clearance was 0.38 mL/min/kg.

For `C[C@@H](c1cc2ccccc2s1)N(O)C(N)=O`, which clearance is on record?
Its clearance is 7.14 mL/min/kg.

For `CON=C(C(=O)NC1C(=O)N2C(C(=O)[O-])C(=C[N+]34CCC(C(N)=O)(CC3)CC4)CSC12)c1nsc(N)n1` (stereo not given), which Vd is on record?
The Vd was 0.27 L/kg.

And the clearance?
The clearance was 1.7 mL/min/kg.

Which clearance does the source give for `COC[C@H]1CN=C(c2ccccc2Cl)c2cc(Br)ccc2N1C` here?
Its clearance is 11.1 mL/min/kg.

Which clearance does the source give for `CC(=O)O[C@H](CC(=O)[O-])C[N+](C)(C)C` here?
The clearance was 1.45 mL/min/kg.

For `COCc1c(-c2ccc(F)cc2)c(=CC[C@H](O)C[C@H](O)CC(=O)O)c(C(C)C)nc1=C(C)C`, which clearance is on record?
Its clearance is 2.98 mL/min/kg.

What does the source list for `CCN1CCN(c2ccc(Nc3cc(N(C)C(=O)Nc4c(Cl)c(OC)cc(OC)c4Cl)ncn3)cc2)CC1`?
Vd: 26.7 L/kg; clearance: 9.19 mL/min/kg; half-life: 33.5 h

For `CCOCCn1c(N2CCCN(C)CC2)nc2ccccc21`, which clearance is on record?
The clearance was 12.5 mL/min/kg.

Which clearance does the source give for `CC(=O)NC(CCS)C(=O)O` (stereo not given) here?
The clearance was 2.06 mL/min/kg.

Which clearance does the source give for `CN1CCN(c2c(F)cc3c(=O)c(C(=O)O)cn4c3c2SCC4)CC1` here?
Its clearance is 0.57 mL/min/kg.

Which clearance does the source give for `CC(=O)N(C[C@H](O)CO)c1c(I)c(C(=O)NCCO)c(I)c(C(=O)NC[C@H](O)CO)c1I` here?
Its clearance is 1.44 mL/min/kg.

Which results are given for `C=CC(=O)N1CCN(c2nc(=O)n(-c3c(C)ccnc3C(C)C)c3nc(-c4c(O)cccc4F)c(F)cc23)[C@@H](C)C1`?
Vd: 3.52 L/kg; clearance: 7.28 mL/min/kg

With `CON=C(C(=O)NC1C(=O)N2C(C(=O)O)=C(C)CS[C@@H]12)c1csc(N)n1` (stereo not given in full) as the compound, how does the clearance read?
The clearance was 2 mL/min/kg.

With `CCCCC[C@H](O)CC[C@@H]1C2Cc3cccc(OCC(=O)O)c3C[C@@H]2C[C@@H]1O` (stereo not given in full) as the compound, how does the clearance read?
Its clearance is 7.14 mL/min/kg.

Which clearance does the source give for `COC(=O)C1C=C2CC(=O)CC[C@]2(C)[C@@]23O[C@H]2C[C@@]2(C)[C@H](CC[C@]24CCC(=O)O4)[C@@H]13` (stereo not given in full) here?
Its clearance is 2.38 mL/min/kg.

With `CC12CCC(=O)C=C1C1CC1C1C2CCC2(C)C1C1CC1C21CCC(=O)O1` (stereo not given) as the compound, how does the half-life read?
Its half-life is 34 h.

For `C[C@@H]1COc2c(N3CCN(C)CC3)c(F)c(C(=O)O)c3c(=O)ccn1c23`, which clearance is on record?
The clearance was 3.5 mL/min/kg.

Which clearance does the source give for `O=C1CN2Cc3c(ccc(Cl)c3Cl)N=C2N1` here?
Its clearance is 2.14 mL/min/kg.

For `Cc1cc2c(s1)Nc1ccccc1N=C2N1CCN(C)CC1`, which clearance is on record?
The clearance was 5.81 mL/min/kg.

What about the half-life of the same compound?
Its half-life is 43.5 h.

Which clearance does the source give for `CCOCn1c(Cc2ccccc2)c(C(C)C)c(=O)[nH]c1=O` here?
Its clearance is 28.6 mL/min/kg.

For `C[C@H](CC(c1ccccc1)c1ccccc1)NC(C)(C)C`, which clearance is on record?
The clearance was 0.95 mL/min/kg.

With `CNCC[C@H](Oc1ccccc1C)c1ccccc1` as the compound, how does the clearance read?
The clearance was 3.63 mL/min/kg.

With `CC(NC(CCc1ccccc1)C(=O)O)C(=O)N1C(C(=O)O)C[C@@H]2CCCC[C@@H]21` (stereo not given in full) as the compound, how does the clearance read?
The clearance was 1.67 mL/min/kg.

For `NC(=O)c1cnn([C@H]2O[C@@H](CO)[C@@H](O)[C@@H]2O)n1`, which clearance is on record?
The clearance was 5 mL/min/kg.

Which clearance does the source give for `C[C@H](O)C1C(=O)N2C(C(=O)[O-])=C(SC3Cn4cnc[n+]4C3)[C@@H](C)[C@@H]12` (stereo not given in full) here?
The clearance was 2.77 mL/min/kg.

With `CN(C/C=C/C#CC(C)(C)C)Cc1cccc2ccccc12` as the compound, how does the clearance read?
The clearance was 17.9 mL/min/kg.

For `C[C@@H]1C[C@H]2[C@@H]3C[C@H](F)C4=CC(=O)C=C[C@]4(C)[C@@]3(F)[C@H](O)C[C@]2(C)[C@@]1(O)C(=O)SCF`, which clearance is on record?
Its clearance is 15.6 mL/min/kg.

With `O=C(O)C1=C(CSc2nnnn2CS(=O)(=O)O)CS[C@H]2C(NC(=O)C(O)c3ccccc3)C(=O)N12` (stereo not given in full) as the compound, how does the clearance read?
Its clearance is 0.33 mL/min/kg.

With `CCC(C)C(=O)O[C@@H]1C[C@@H](O)C=C2C=C[C@@H](C)[C@H](CC[C@H](O)C[C@H](O)CC(=O)O)[C@H]21` (stereo not given in full) as the compound, how does the clearance read?
The clearance was 8.5 mL/min/kg.

With `CCN1CCC[C@@H]1CNC(=O)c1cc(S(=O)(=O)CC)ccc1OC` as the compound, how does the clearance read?
The clearance was 5.71 mL/min/kg.

Same assay, conditions: human; plasma

With `CCOc1ncc(C)c2c1[C@H](c1ccc(C#N)cc1OC)C(C(N)=O)C(C)=N2` (stereo not given in full) as the compound, how does the fraction unbound read?
Its fraction unbound is 0.08.

Which fraction unbound does the source give for `CC(=O)C1CC[C@H]2[C@@H]3CC[C@H]4C[C@](C)(O)CC[C@]4(C)[C@H]3CC[C@]12C` (stereo not given in full) here?
The fraction unbound was 0.01.

For `Cc1cc(C=CC#N)cc(C)c1Nc1ccnc(Nc2ccc(C#N)cc2)n1`, which fraction unbound is on record?
Its fraction unbound is 0.3.

With `C[C@]12CC[C@@H]3c4ccc(O)cc4CC[C@H]3[C@@H]1[C@@H](O)[C@@H](O)[C@@H]2O` as the compound, how does the fraction unbound read?
Its fraction unbound is 0.52.

With `COc1cc2nccc(Oc3ccc(NC(=O)Nc4cc(C)on4)c(Cl)c3)c2cc1OC` as the compound, how does the fraction unbound read?
Its fraction unbound is 0.01.

For `CC(C)Oc1ccc(-c2nn([C@@H](C)c3oc4ccc(F)cc4c(=O)c3-c3cccc(F)c3)c3ncnc(N)c23)cc1F`, which fraction unbound is on record?
The fraction unbound was 0.01.

With `C[C@H]1CO[C@@H]2Cn3cc(C(=O)NCc4ccc(F)cc4F)c(=O)c(O)c3C(=O)N12` as the compound, how does the fraction unbound read?
The fraction unbound was 0.48.

Which fraction unbound does the source give for `CCN1CCN(c2ccc(Nc3cc(N(C)C(=O)Nc4c(Cl)c(OC)cc(OC)c4Cl)ncn3)cc2)CC1` here?
The fraction unbound was 0.03.

Which fraction unbound does the source give for `C=CC(=O)N1CCN(c2nc(=O)n(-c3c(C)ccnc3C(C)C)c3nc(-c4c(O)cccc4F)c(F)cc23)[C@@H](C)C1` here?
The fraction unbound was 0.11.

With `CC12CCC(=O)C=C1C1CC1C1C2CCC2(C)C1C1CC1C21CCC(=O)O1` (stereo not given) as the compound, how does the fraction unbound read?
Its fraction unbound is 0.04.

Which fraction unbound does the source give for `Cc1cc2c(s1)Nc1ccccc1N=C2N1CCN(C)CC1` here?
Its fraction unbound is 0.07.
